Assay: xn = mol fraction of the nth substance listed
Conditions: 101 kPa, Liquid; for mass density: Vibrating tube method; for speed of sound: Sing-around technique in a fixed-path interferometer

CCCCCCCC[n+]1ccn(C)c1.[Cl-] [1-methyl-3-octylimidazolium chloride] + O
Conditions | mass density, 298 K [kg/m3] | mass density, 303 K [kg/m3] | mass density, 308 K [kg/m3] | mass density, 313 K [kg/m3] | speed of sound, 303 K [m/s] | speed of sound, 308 K [m/s] | speed of sound, 313 K [m/s]
x1 = 0.000276 | 997.161 | 995.767 | 994.15 | 992.324 | 1511.7 | 1522.2 | 1531.1
x1 = 0.000495 | 997.221 | 995.808 | 994.182 | 992.347 | 1513.5 | 1523.8 | 1532.6
x1 = 0.000781 | 997.313 | 995.896 | 994.262 | 992.417 | 1515.8 | 1526 | 1534.6
x1 = 0.00102 | 997.386 | 995.954 | 994.297 | 992.447 | 1517.8 | 1527.8 | 1536.2
x1 = 0.0013 | 997.479 | 996.029 | 994.364 | 992.496 | 1520 | 1529.8 | 1538.1
x1 = 0.001503 | 997.527 | 996.067 | 994.399 | 992.524 | 1521.6 | 1531.3 | 1539.5
x1 = 0.001892 | 997.639 | 996.169 | 994.479 | 992.591 | 1524.7 | 1534.1 | 1542
x1 = 0.002073 | 997.696 | 996.211 | 994.514 | 992.619 | 1526.1 | 1535.4 | 1543.2
x1 = 0.002376 | 997.786 | 996.287 | 994.575 | 992.664 | 1528.3 | 1537.4 | 1545
x1 = 0.00261 | 997.846 | 996.341 | 994.623 | 992.706 | 1530.2 | 1539.1 | 1546.6
x1 = 0.002774 | 997.889 | 996.377 | 994.653 | 992.728 | 1531.2 | 1540.1 | 1547.5
x1 = 0.003111 | 997.987 | 996.455 | 994.711 | 992.774 | 1533.7 | 1542.3 | 1549.5
x1 = 0.003716 | 998.157 | 996.597 | 994.828 | 992.866 | 1537.7 | 1545.9 | 1552.7
x1 = 0.003899 | 998.198 | 996.633 | 994.859 | 992.89 | 1538.8 | 1546.9 | 1553.7
x1 = 0.004079 | 998.254 | 996.675 | 994.891 | 992.912 | 1540 | 1548 | 1554.6
x1 = 0.004181 | 998.28 | 996.696 | 994.908 | 992.929 | 1540.7 | 1548.6 | 1555.1
x1 = 0.004462 | 998.349 | 996.755 | 994.953 | 992.963 | 1542.4 | 1550.1 | 1556.5
x1 = 0.004601 | 998.382 | 996.78 | 994.974 | 992.978 | 1543.2 | 1550.8 | 1557.1
x1 = 0.004981 | 998.469 | 996.85 | 995.028 | 993.015 | 1545.2 | 1552.6 | 1558.7
x1 = 0.005198 | 998.52 | 996.89 | 995.061 | 993.04 | 1546.2 | 1553.5 | 1559.5
x1 = 0.005607 | 998.619 | 996.962 | 995.112 | 993.076 | 1548.2 | 1555.3 | 1561
x1 = 0.005782 | 998.649 | 996.986 | 995.128 | 993.084 | 1549 | 1555.9 | 1561.6

Reference: the NIST ThermoML archive (doi:10.1016/j.jct.2012.11.032)
